Experimental data published in patent publication US20250338846A1, “COMPOSITIONS HAVING PESTICIDAL UTILITY AND PROCESSES RELATED THERETO” (CORTEVA AGRISCIENCE, LLC, priority 2022, published 2025).

Legend:
Type in all cases: in vivo
[1] = system: Cotton Aphid (Aphis gossypii, APHIGO); test: Bioassay 7: Cotton Aphid, foliar spray on infested cotton seedlings, live aphids counted three days after treatment; details: AI alone 5 (10^-5) Wt %
Procedure: where X=No. of live larvae on solvent check and Y=No. of live larvae on treated diet. In Table B6 the “Expected % Control” was calculated using the method described in Colby S. R., Weeds, 1967, 15, 20-22. Bioassay 7: Cotton Aphid (Aphis gossypii, APHIGO) (“CA”).
Stock solutions of Formula One and one or more of the active ingredients were prepared at concentrations of 1 mg/mL using a 1:1 mixture of acetone: methanol as a diluent. The stock solutions were prepared with Formula One as well as for each of the active ingredients individually. Test solutions were prepared from the stock solutions. Test solutions were prepared containing Formula One, the individual active ingredients, and mixtures of Formula One with each of the active ingredients. The test solutions for Formula One and the individual active ingredients were prepared by adding 1.5 mL of stock solution to a 30 mL glass vial, then adding 1.5 mL of 1:1 acetone: methanol solvent, followed by the addition of 27 mL water with 0.025% Tween® 20 to create a […]. Each test solution was serially diluted to create desired doses of test solutions ranging from 0.000001 to 0.0025% (w/v). The test solutions were tested against CA using the following procedure: cotton seedlings were grown in 3-inch pots with one true leaf (2-5 cm in diameter) were used as test substrate. The seedlings were infested with 20-50 CA (wingless adult and nymph stages) one day prior to chemical application. Four pots with individual seedlings were used for each treatment. A hand-held aspirator-type sprayer was used for spraying a solution to both sides of […] leaves until runoff. Reference plants (solvent check) were sprayed with the diluent only (0.025% Tween® 20 and 10% acetone:methanol (1:1) in water). Treated plants were held in a holding room for three days at approximately 25° C. and ambient relative humidity (RH about 20% to about 45%) prior to grading. Evaluation was conducted by counting the number of live aphids per plant under a microscope three days after treatment. Percent control was measured using Abbott's correction formula (W. S. Abbott, J. Econ. Entomol. 18 (1925), pp. 265-267) as follows:
where X=No. of live aphids on solvent check plants and Y=No. of live aphids on treated plants. In Table B1 the “Expected % Control” was calculated using the method described in Colby S. R., Weeds, 1967, 15, 20-22. Bioassay 8: Sweet Potato Whitefly (Bemisia tabaci, BEMITA) (“SPW”).

[2] = system: Diamondback Moth (Plutella xylostella, PLUTMA); test: Bioassay 9: Diamondback Moth, leaves of track-sprayed cabbage plants, mortality and feeding damage scored
Procedure: where X=No. of live nymphs on solvent check plants and Y=No. of live nymphs on treated plants. In Table B2 the “Expected % Control” was calculated using the method described in Colby S. R., Weeds, 1967, 15, 20-22. Bioassay 9: Diamondback Moth (Plutella xylostella, PLUTMA) (DBM).
Stock solutions were prepared with Formula One as well as for each of the active ingredients individually. Test solutions were prepared from the stock solutions. Test solutions were prepared containing Formula One, the individual active ingredients, and mixtures of Formula One with each of the active ingredients. The test solution for Formula One was prepared by adding 500 μL of the stock solution to a 25 mL glass vial, then adding 500 μL of a 9:1 mixture of acetone: water. The individual active ingredients were prepared by adding 500 μL of stock solution to a 25 mL glass vial, then adding 500 μL of a 9:1 mixture of acetone: water. The test solutions containing mixtures of Formula One and the individual active ingredients were prepared by adding 500 μL of the active ingredient stock solution to a 25 mL glass vial, followed by 500 μL of the Formula One stock solution, creating a test solution containing 4000 ppm Formula One and 0.4% (w/v) of the active ingredient. Each test solution was serially diluted to create desired doses of test solutions (0.4% (w/v), 0.04% (w/v), 0.004% (w/v), 0.0004% (w/v), 0.00004% (w/v), and 0.000004% (w/v)). In test solutions containing mixtures of Formula One and the active ingredients, the active ingredients were diluted as described above, but the Concentration of Formula One was held constant (0.4% (w/v)). The highest dose test solution (0.4% (w/v)) was discarded, leaving 5 test solution concentrations used in the test.
Cabbage seedlings, grown in 3-inch pots with 2-3 small (3-5 centimeter (cm)) true leaves, were used as test substrate. Cabbage plants were sprayed with desired concentrations of Formula One and active ingredients or their mixtures using a track Sprayer. Reference plants (solvent check) were sprayed with diluent only (0.025% Tween® 20 and 10% acetone:methanol (1:1) in water). The sprayed cabbage plants were allowed to dry for 1 hour, after which leaves from each treatment were placed in a cell of a plastic tray. One leaf per cell and 8 replicates for each cell. The tested doses ranged between 0.000001% (w/v) to 0.0002% (w/v). One 2nd instar DBM larvae were placed in each cell of the tray and allowed to feed on the cabbage foliage for […] after which the mortality and feeding damage were scored. Test trays were held at approximately 26° C. and ambient relative humidity (RH) prior to grading. The number of live larvae were recorded from each cell and percent control was measured using Abbott's correction formula (W. S. Abbott, J. Econ. Entomol. 18 (1925), pp. 265-267) as follows:
where X=No. of live larvae on solvent check and Y=No. of live larvae on treated diet. In Table B6 the “Expected % Control” was calculated using the method described in Colby S. R., Weeds, 1967, 15, 20-22.

[3] = system: Western Tarnished Plant Bug (Lygus hesperus, LYGUHE); test: Bioassay 4: Western Tarnished Plant Bug, soaked green bean segments, living nymphs 3 days after application; details: AI alone 0.005 % w/v
Procedure: (§1) where X=No. of live nymphs on solvent check leaf discs and Y=No. of live nymphs on treated leaf discs. In Table B3 the “Expected % Control” was calculated using the method described in Colby S. R., Weeds, 1967, 15, 20-22. Bioassay 4: Western Tarnished Plant Bug (Lygus hesperus, LYGUHE) (“WTPB”).
(§2) Stock solutions were prepared with Formula One as well as for each of the active ingredients individually. Test solutions were prepared from the stock solutions. Test solutions were prepared containing Formula One, the individual active ingredients, and mixtures of Formula One with each of the active ingredients. The test solution for Formula One was prepared by adding 500 μL of the stock solution to a 25 mL glass vial, then adding 500 μL of acetone, followed by the addition of 9 mL water with 0.025% Tween®) 20 to create a 0.04% (w/v) solution. The test solutions of the individual active ingredients were prepared by adding 500 μL of stock solution to a 25 mL glass vial, then adding 500 μL of acetone, followed by the addition of 9 mL water with 0.025% Tween®) 20 to create a 0.005% (w/v) solution. The test solutions containing mixtures of Formula One and the individual active ingredients were prepared by adding 500 μL of the active ingredient stock solution to a 25 mL glass vial, followed by 500 μL of the Formula One stock solution, then by the addition of 9 mL water with 0.025% Tween®) 20 to create a test solution containing 0.04% (w/v) Formula One and 0.005% (w/v) of the active ingredient. Each test solution was serially diluted to create desired doses of test solutions (0.005% (w/v), 0.00125% (w/v), 0.0003125% (w/v), 0.000078% (w/v), and 0.0000195% (w/v)). In test solutions containing mixtures of Formula One and the active ingredients, the active ingredients were diluted as described above, but the Concentration of Formula One was held constant (0.04% (w/v)).
The test solutions were tested against WTPB using the following procedure: Fresh green beans were cut into segments approximately 1.5 inches long. Four bean segments were added to each 25 mL vial containing the test solutions and soaked for approximately 15 minutes. After soaking, a single bean fragment was removed and placed into a single well of a 32-well rearing tray (Frontier Agricultural Sciences™), on top of a round filter paper disc. A reference treatment (solvent check) was treated with the diluent only. Each treatment was replicated four times and the test treatments were held at approximately 26° C. and ambient relative humidity (RH) prior to grading. Bean segments were allowed to air dry for ˜30 minutes. Three WTPB nymphs were added to and contained in each well with a clear perforated adhesive lid. The total number of living WTPB nymphs was recorded 3 days after application. Scoring was based off the total number of living nymphs out of all four replicates. Percent control was measured using Abbott's correction formula (W. S. Abbott, J. Econ. Entomol. 18 (1925), pp. 265-267) as follows:
X=No. of live nymphs on solvent check and Y=No. of live nymphs on treated bean segments. In Table B4 the “Expected % Control” was calculated using the method described in Colby S. R., Weeds, 1967, 15, 20-22. Bioassay 5: Neotropical Brown Stink Bug (Euschistus heros, EUSCHE) (“BSB”).

[4] = system: Western Flower Thrips (Frankliniella occidentalis, FRANOC); test: Bioassay 3: Western Flower Thrips, cotton leaf disc dip, live WFT counted 3 days after treatment; details: AI alone 0.0003125 % w/v
Procedure: as §2, with “Stock solutions of Formula One and various active ingredients were prepared initially at a concentration of 8 mg/ml for Formula One and 1 mg/mL for the active ingredients, respectively, using acetone as a diluent. Stock” for “Stock”
The test solutions were tested against WFT using the following procedure: Leaf discs (2.7 cm in diameter) were cut from the true leaves of cotton plants. Leaf discs were dipped into the test solutions and shaken to ensure complete coverage of the leaf disc and then placed in Millipore®) PetriSlides containing a filter paper disc. Treated leaf discs were air dried for approximately 1 hour. Each leaf disc was infested with 5 WFT (9-10-day old nymphs) by placement on each leaf disc, and the PetriSlides were capped to prevent escape. Each treatment was replicated three times and the test treatments were held at approximately 26° C. and ambient relative humidity (RH) prior to grading. Reference discs (solvent check) were treated with the diluent only. Evaluation was conducted by counting the number of live WFT under magnification 3 days after treatment. Percent control was measured using Abbott's correction formula (W. S. Abbott, J. Econ. Entomol. 18 (1925), pp. 265-267) as follows:
as §1

CC1(C)C(C=C(Cl)Cl)C1C(=O)OC(C#N)c1ccc(F)c(Oc2ccccc2)c1 (stereo not drawn) [Beta-Cyfluthrin]
Average % Control A1 [1]: 21.34% | Average % Control AI ([2]; AI alone 5 (10^-5) Wt %): 13.64% | Average % Control AI ([2]; AI alone 10 (10^-5) Wt %): 27.27% | Average % Control AI ([2]; AI alone 20 (10^-5) Wt %): 72.73%

O=c1c(-c2cccc(C(F)(F)F)c2)c([O-])[n+](Cc2cncnc2)c2ccccn12 [Triflumezopyrim]
Average % Control AI [3]: 9% | Average % Control AI [4]: 7%
